Measured values: ChEMBL document CHEMBL1135461, “Conformations and receptor activity of desmopressin analogues, which contain gamma-turn mimetics or a psi[CH(2)O] isostere” (2002)

Test system: Rattus norvegicus
Experiment: In vivo antidiuretic activity in female Sprague-Dawley rats by intravenous administration using Vasopressin house standard (561 IU/mg)

Row | Structure (SMILES) | Agonist activity
1 | C[C@@H]1NC(=O)[C@H](Cc2ccccc2)NC(=O)[C@H](Cc2ccc(O)cc2)NC(=O)CCSSC[C@@H](C(=O)N2CCC[C@H]2C(=O)N[C@H](CCCN=C(N)N)C(=O)NCC(N)=O)NC(=O)[C@H](CC(N)=O)NC1=O | 645 IU mg-1
2 | C[C@@H]1OC[C@H](Cc2ccccc2)NC(=O)[C@H](Cc2ccc(O)cc2)NC(=O)CCSSC[C@@H](C(=O)N2CCC[C@H]2C(=O)N[C@H](CCCN=C(N)N)C(=O)NCC(N)=O)NC(=O)[C@H](CC(N)=O)NC1=O | 0.56 IU mg-1
3 | CC1OC2CN(C1=O)[C@@H](CC(N)=O)C(=O)N[C@H](C(=O)N1CCC[C@H]1C(=O)N[C@H](CCCN=C(N)N)C(=O)NCC(N)=O)CSSCCC(=O)N[C@@H](Cc1ccc(O)cc1)C(=O)N[C@H]2Cc1ccccc1 (stereo in doubt; 6) | 0.0026 IU mg-1
4 | N=C(N)NCCC[C@@H](NC(=O)[C@@H]1CCCN1C(=O)[C@@H]1CSSCCC(=O)N[C@@H](Cc2ccc(O)cc2)C(=O)N[C@@H](Cc2ccccc2)C(=O)N[C@@H](CCC(N)=O)C(=O)N[C@@H](CC(N)=O)C(=O)N1)C(=O)NCC(N)=O [DESMOPRESSIN] | 1000 IU mg-1
5 | N=C(N)NCCC[C@H](NC(=O)[C@@H]1CCCN1C(=O)[C@@H]1CSSC[C@H](N)C(=O)N[C@@H](Cc2ccc(O)cc2)C(=O)N[C@@H](Cc2ccccc2)C(=O)N[C@@H](CCC(N)=O)C(=O)N[C@@H](CC(N)=O)C(=O)N1)C(=O)NCC(N)=O [VASOPRESSIN] | 561 IU mg-1
